# Measurements: article PMC9490236, “Accurate de novo design of membrane-traversing macrocycles” (Cell, 2022)
# Read-outs that look alike come from different tables or passages of the source. Where a SMILES comes first, the peptide text is derived from it. [ ]: non-standard residue; d: D form. NMeF = CN[C@@H](Cc1ccccc1)C(=O)O; dNMeF = CN[C@H](Cc1ccccc1)C(=O)O; NMeL = CN[C@@H](CC(C)C)C(=O)O; dNMeL = CN[C@H](CC(C)C)C(=O)O; NMeV = CN[C@H](C(=O)O)C(C)C; dNMeA = CN[C@H](C)C(=O)O
# Key:
# [1] = Caco-2 permeability assay (apical to basolateral); type: in vitro ADME, human; design: Caco_R1 / Caco_R3: unit not given here
# Description: (§1) Human colon adenocarcinoma-derived Caco-2 cell line was used as a model system to investigate the intestinal epithelial permeability of our designs. Caco-2 cells were propagated in T125 flasks (Corning, Merck) using Dulbecco’s modified Eagle medium supplemented with 10% (v/v) fetal bovine serum, 1% (v/v) nonessential amino acids, and 1% (v/v) penicillin-streptomycin (Gibco, Thermo Fisher Scientific) at 37°C in an atmosphere of 5% CO2. Cells were subcultured when they reached 80% confluence.
# (§2) The permeability of designed peptides was evaluated using an accelerated 6-day Caco-2 permeability assay as described previously ([Sevin et al., 2013]). In brief, cells were seeded into the 12-well Transwell plates with 0.4 μm polyester membrane inserts (Corning, Merck) to give 4.0 × 10^5 cells/well. The complete assay medium contained Dulbecco’s modified Eagle medium supplemented with 10% (v/v) fetal bovine serum, 1% (v/v) nonessential amino acids, and 0.4 μg/mL puromycin. The medium in plates was renewed every second day. The inserts received 0.75 mL of assay medium in the upper compartment (apical chamber) and 1.5 mL in the bottom compartment (basolateral chamber) individually. After 6-day incubation or until the cells formed monolayers, the medium in the apical and basolateral chamber was replaced with peptide solutions at 50 μM or Hanks' Balanced Salt Solution (HBSS), separately. The plates were incubated for 90 min at 37°C on an orbital shaker (60 rpm). The peptide concentration of solutions in the apical and basolateral compartments was subsequently quantified using LC-MS (Qstar Elite, AB Sciex Australia) to evaluate the transmembrane flux of peptides in the apical-to-basolateral direction. Membrane integrity of the Caco-2 cell monolayer was validated using trans-epithelial electrical resistance (TEER) measurements before and after the assays. Atenolol and quinidine were included as negative and positive controls in all assays.
# Caco-2 cells = assay: Caco-2 permeability assay (apical to basolateral); type: in vitro ADME, human; design: Caco_R1 / Caco_R3: unit not given here
# Description: as §1, §2
# [2] = PAMPA
# in vitro = details: PAMPA, PAMPA_Papp_Avg
# [3] = Caco-2, average of 3 replicates, read-out: Caco_Papp_Average
SMILES,"Papp A→B [1, 3] [×10⁻⁶ cm/s]","Caco_R1 (Caco-2 cells; Caco-2 Papp, replicate 1)","Caco_R3 (Caco-2 cells; Caco-2 Papp, replicate 3)",PAMPA_R1 [2],PAMPA_R3 [2],Papp (in vitro) [×10⁻⁶ cm/s],also measured
"CC[C@@H](C)[C@H]1NC(=O)[C@H](CC(C)C)NC(=O)[C@@H](CC(C)C)NC(=O)[C@H](C(C)C)NC(=O)[C@@H](Cc2ccccc2)N(C)C(=O)[C@@H]2CCCN2C(=O)[C@@H](CC(C)C)NC(=O)[C@H](CC(C)C)NC(=O)[C@H]2CCCN2C1=O (single isomer, unassigned) [Design D9.4.p1, LEU DILE DPRO LEU DLEU PRO *DPHE VAL DLEU]",3.76,3.39,6,–,–,–,–
"CC[C@@H](C)[C@H]1NC(=O)[C@H](CC(C)C)NC(=O)[C@@H](CC(C)C)NC(=O)[C@H](C(C)C)NC(=O)[C@@H](Cc2ccccc2)N(C)C(=O)[C@@H]2CCCN2C(=O)[C@@H](CC(C)C)NC(=O)[C@H](CC(C)C)NC(=O)[C@H]2CCCN2C1=O (single isomer, unassigned) [Design D9.4.p2, LEU DILE DPRO LEU DLEU PRO *DPHE VAL DLEU]",–,3.27,2.03,–,–,–,–
"CC[C@H](C)[C@@H]1NC(=O)[C@H](Cc2ccccc2)N(C)C(=O)[C@H](CC(C)C)N(C)C(=O)[C@@H](C(C)C)NC(=O)[C@@H](C)NC(=O)[C@@H]2CCCN2C(=O)[C@@H](CC(C)C)NC(=O)[C@@H]2CCCN2C(=O)[C@H](C)NC1=O (single isomer, unassigned) [Design D9.6.p1]",4.51,4.759,4.47,–,–,–,–
"CC[C@H](C)[C@@H]1NC(=O)[C@H](Cc2ccccc2)N(C)C(=O)[C@H](CC(C)C)N(C)C(=O)[C@@H](C(C)C)NC(=O)[C@@H](C)NC(=O)[C@@H]2CCCN2C(=O)[C@@H](CC(C)C)NC(=O)[C@@H]2CCCN2C(=O)[C@H](C)NC1=O (single isomer, unassigned) [Design D9.6.p2]",–,3.08,7.44,–,–,–,–
"CC[C@H](C)[C@@H]1NC(=O)[C@@H](CC(C)C)NC(=O)[C@H](CC(C)C)N(C)C(=O)[C@H](Cc2ccccc2)NC(=O)CN(C)C(=O)[C@@H]2CCCN2C(=O)[C@H](C(C)C)NC(=O)[C@H](Cc2ccccc2)N(C)C(=O)[C@H]2CCCN2C(=O)[C@H](CC(C)C)NC1=O (single isomer, unassigned) [Design D10.1.p2, DLEU ILE LEU DPRO *PHE VAL PRO *GLY PHE *LEU]",3.6,2.58,4.01,–,–,–,–
"CC(C)C[C@@H]1NC(=O)[C@@H]2CCCN2C(=O)[C@@H](Cc2ccccc2)NC(=O)[C@H](C)N(C)C(=O)[C@H](CC(C)C)NC(=O)[C@H](CC(C)C)N(C)C(=O)[C@@H](C)NC(=O)[C@@H](CC(C)C)NC(=O)[C@@H]2CCCN2C(=O)[C@@H](Cc2ccccc2)NC1=O (single isomer, unassigned) [Design D10.2.p1, LEU DPHE PRO DLEU DALA *LEU LEU *ALA DPHE PRO]",–,–,–,4.51E-06,3.88E-06,–,"Papp A→B ([1]; Caco-2, Caco_Papp_Average): 9.76 ×10⁻⁶ cm/s; Caco_R1 (Caco-2 cells; Caco-2): 8.83; Caco_R3 (Caco-2 cells; Caco-2): 11.73; PAMPA_Papp_Avg [2]: 3.92E-06"
"CC(C)C[C@@H]1NC(=O)[C@@H]2CCCN2C(=O)[C@@H](Cc2ccccc2)NC(=O)[C@H](C)N(C)C(=O)[C@H](CC(C)C)NC(=O)[C@H](CC(C)C)N(C)C(=O)[C@@H](C)NC(=O)[C@@H](CC(C)C)NC(=O)[C@@H]2CCCN2C(=O)[C@@H](Cc2ccccc2)NC1=O (single isomer, unassigned) [Design D10.2.p2, LEU DPHE PRO DLEU DALA *LEU LEU *ALA DPHE PRO]",–,–,–,4.31E-07,4.68E-07,–,Caco_Papp_Average (Caco-2 cells; Caco-2): 0; Caco_R1 (Caco-2 cells; Caco-2): 0; Caco_R3 (Caco-2 cells; Caco-2): 0; PAMPA_Papp_Avg [2]: 3.60E-07
"CC[C@H](C)[C@@H]1NC(=O)[C@@H](C(C)C)NC(=O)[C@@H]2CCCN2C(=O)[C@@H](CC(C)C)N(C)C(=O)[C@@H](C(C)C)NC(=O)[C@H](CC(C)C)N(C)C(=O)[C@H]2CCCN2C(=O)[C@@H](C)NC(=O)[C@H](Cc2ccccc2)N(C)C(=O)[C@H]2CCCN2C1=O (single isomer, unassigned) [Design D10.3.p2, ILE DPRO *PHE DALA DPRO *LEU DVAL *DLEU PRO DVAL]",4.43,4.05,2.63,–,–,–,–
"CC(C)C[C@@H]1C(=O)N(C)[C@@H](CC(C)C)C(=O)N2CCC[C@@H]2C(=O)N[C@H](CC(C)C)C(=O)N[C@H](C)C(=O)N2CCC[C@@H]2C(=O)N2CCC[C@H]2C(=O)N[C@@H](C)C(=O)N[C@H](Cc2ccccc2)C(=O)N[C@H](CC(C)C)C(=O)N[C@@H](C(C)C)C(=O)N1C (single isomer, unassigned) [Design D11.9.p2, VAL *DLEU *LEU DPRO DLEU DALA DPRO PRO ALA DPHE DLEU]",–,–,–,BQL,BQL,–,"Papp A→B ([1]; Caco-2, Caco_Papp_Average): 4.03 ×10⁻⁶ cm/s; Caco_R1 (Caco-2 cells; Caco-2): 2.62; Caco_R3 (Caco-2 cells; Caco-2): 4.02; PAMPA_Papp_Avg [2]: BQL"
"CC(C)C[C@@H]1NC(=O)[C@@H](C(C)C)NC(=O)[C@H](Cc2ccccc2)N(C)C(=O)[C@H]2CCCN2C(=O)[C@H]2CCCN2C(=O)[C@@H](C)NC(=O)[C@H](Cc2ccccc2)N(C)C(=O)[C@H]2CCCN2C(=O)[C@@H](C(C)C)NC(=O)[C@@H]2CCCN2C1=O [Design D10.4, *PHE DVAL LEU PRO DVAL DPRO *PHE DALA DPRO DPRO] (cyclo(LP[dV][dP][NMeF][dA][dP][dP][NMeF][dV]))",0.627,1.39,0.49,–,–,–,–
"CC(C)C[C@H]1C(=O)N2CCC[C@@H]2C(=O)N(C)[C@@H](C(C)C)C(=O)N[C@@H](C(C)C)C(=O)N2CCC[C@H]2C(=O)N2CCC[C@@H]2C(=O)N[C@@H](C)C(=O)N[C@H](C(C)C)C(=O)N(C)[C@@H](CC(C)C)C(=O)N[C@@H](C)C(=O)N1C [Design D10.5, PRO DPRO ALA DVAL *LEU ALA *LEU DPRO *VAL VAL] (cyclo(A[NMeL][dP][NMeV]VP[dP]A[dV][NMeL]))",0.497,1.31,0.08,–,–,–,–
"CC(C)C[C@@H]1NC(=O)[C@@H](C)NC(=O)[C@H]2CCCN2C(=O)[C@@H]2CCCN2C(=O)[C@@H](C(C)C)NC(=O)[C@@H](CC(C)C)N(C)C(=O)[C@H]2CCCN2C(=O)[C@H]2CCCN2C(=O)[C@@H](C)N(C)C(=O)[C@H](CC(C)C)N(C)C(=O)[C@@H](Cc2ccccc2)NC1=O [Design D11.16, LEU DPHE *LEU *DALA DPRO DPRO *DLEU DVAL PRO DPRO DALA] (cyclo(L[dF][NMeL][dNMeA][dP][dP][dNMeL][dV]P[dP][dA]))",–,–,–,3.70E-07,4.55E-07,0.43,–
"CC[C@H](C)[C@@H]1NC(=O)[C@H](C(C)C)NC(=O)[C@@H](CC(C)C)N(C)C(=O)[C@H](Cc2ccccc2)NC(=O)[C@@H](CC(C)C)N(C)C(=O)[C@@H](C)N(C)C(=O)[C@H]2CCCN2C(=O)[C@@H]2CCCN2C(=O)[C@H](CC(C)C)NC(=O)[C@@H](C)N(C)C(=O)[C@@H]2CCCN2C1=O [Design D11.20, PRO *DALA LEU PRO DPRO *DALA *DLEU PHE *DLEU VAL ILE] (cyclo(F[dNMeL]VIP[dNMeA]LP[dP][dNMeA][dNMeL]))",–,–,–,1.21E-06,9.60E-07,1.29,–
"CC[C@H](C)[C@@H]1NC(=O)[C@@H]2CCCN2C(=O)[C@H]2CCCN2C(=O)[C@@H](Cc2ccccc2)NC(=O)[C@@H](CC(C)C)N(C)C(=O)[C@H](C(C)C)NC(=O)[C@@H](CC(C)C)NC(=O)[C@@H]2CCCN2C(=O)[C@H]2CCCN2C(=O)[C@@H](C)N(C)C(=O)[C@H](C(C)C)N(C)C1=O [Design D11.21, PRO ILE *VAL *DALA DPRO PRO DLEU VAL *DLEU DPHE DPRO] (cyclo(I[NMeV][dNMeA][dP]P[dL]V[dNMeL][dF][dP]P))",–,–,–,2.47E-07,2.17E-07,0.24,–
"CC(C)C[C@H]1NC(=O)[C@@H](C)NC(=O)[C@@H](C)NC(=O)[C@H]2CCCN2C(=O)[C@@H]2CCCN2C(=O)[C@H]2CCCN2C(=O)[C@@H](C)NC(=O)[C@@H](Cc2ccccc2)N(C)C(=O)[C@H]2CCCN2C(=O)[C@@H](CC(C)C)NC(=O)[C@@H](CC(C)C)NC1=O [Design D11.25, DLEU DPRO *DPHE DALA DPRO PRO DPRO DALA DALA DLEU DLEU] (cyclo([dP][dA][dA][dL][dL][dL][dP][dNMeF][dA][dP]P))",–,–,–,3.92E-07,3.97E-07,0.405,–
"CC[C@H](C)[C@@H]1NC(=O)[C@H](C(C)C)N(C)C(=O)[C@H]2CCCN2C(=O)[C@H]([C@@H](C)CC)NC(=O)[C@@H](CC(C)C)N(C)C(=O)[C@@H](C)NC(=O)[C@@H]2CCCN2C(=O)[C@H]2CCCN2C(=O)[C@H](CC(C)C)NC(=O)[C@@H](Cc2ccccc2)NC(=O)[C@H](CC(C)C)NC(=O)[C@H]2CCCN2C1=O [Design D12.3, DPRO *VAL ILE DPRO LEU DPHE LEU DPRO PRO DALA *DLEU ILE] (cyclo([dA][dNMeL]I[dP][NMeV]I[dP]L[dF]L[dP]P))",–,–,–,7.65E-07,9.01E-07,0.789,–
